Experimental data: PubChem BioAssay AID624369 (Broad Institute, 2012)
Results filed as inconclusive are left out. The source made the active and inactive calls.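 The calls were made as follows: active = fitted curve crosses a set inhibition level at a dose up to twice the top tested dose; inconclusive = flat curve with moderate inhibition, or an unreliable curve fit; inactive = the rest, including signal rising instead of falling.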

Assay: TNFa-induced NF-kB reporter signal decrease – HEK293 LMP1 reporter cells, dry powder, set 2, selectivity assay for EBV LMP1 NF-kB inhibitor project, dose response (AID 624369)
Conditions: HEK293 LMP1 TES2 NF-kB luciferase reporter, 16 h; at 35 µM (top of the series)

Row | Structure (SMILES) | activity change, negative = inhibition
1 | O=C(Cc1ccccn1)NCC[C@H]1CC[C@H](NC(=O)Nc2ccc(Cl)cc2)[C@H](CO)O1 | -3.5% (inactive)
2 | COc1cccc(S(=O)(=O)N(C)C[C@H]2Oc3cc(C4=CCCCC4)ccc3S(=O)(=O)N([C@@H](C)CO)C[C@@H]2C)c1 | 12% (inactive)
3 | O=C(C[C@@H]1C[C@H]2c3cc(NS(=O)(=O)c4ccc(F)cc4)ccc3O[C@H]2[C@@H](CO)O1)NC1CCCCC1 | -3.73% (inactive)
4 | CN(C)c1ccc2c(c1)[C@@H]1C[C@@H](CC(=O)NCc3ccc(Oc4ccccc4)cc3)O[C@@H](CO)[C@@H]1O2 | -31.8% (inactive)
5 | C[C@H](NC(=O)C[C@H]1C=C[C@@H](NC(=O)Cc2ccccn2)[C@@H](CO)O1)c1ccccc1 | -2.31% (inactive)
6 | C[C@@H](NC(=O)C[C@H]1C=C[C@@H](NC(=O)Cc2ccccn2)[C@H](CO)O1)c1ccccc1 | -3.95% (inactive)
7 | C[C@@H](NC(=O)C[C@@H]1C=C[C@@H](NC(=O)Cc2ccccn2)[C@H](CO)O1)c1ccccc1 | -0.205% (inactive)
8 | O=C(Cc1ccccn1)NCC[C@H]1CC[C@@H](NC(=O)Nc2ccc(Cl)cc2)[C@@H](CO)O1 | -6.43% (inactive)
9 | C[C@@H]1CN([C@H](C)CO)C(=O)c2c(c3ccccc3n2C)-c2ccccc2CO[C@H]1CN(C)C(=O)Nc1ccc(F)cc1 | 30% (inactive)
10 | C[C@H](NC(=O)C[C@@H]1C=C[C@@H](NC(=O)Cc2ccccn2)[C@H](CO)O1)c1ccccc1 | -3.22% (inactive)
11 | C[C@@H](NC(=O)C[C@@H]1C=C[C@H](NC(=O)Cc2ccccn2)[C@@H](CO)O1)c1ccccc1 | 4.33% (inactive)
12 | C[C@H]1CN([C@@H](C)CO)C(=O)c2c(c3ccccc3n2C)-c2ccccc2CO[C@@H]1CN(C)C(=O)Nc1ccc(F)cc1 | 1.28% (inactive)
13 | O=C(Cc1ccccn1)NCC[C@@H]1CC[C@H](NC(=O)Nc2ccc(Cl)cc2)[C@H](CO)O1 | 1.35% (inactive)
14 | O=C(C[C@H]1C[C@@H]2c3cc(NS(=O)(=O)c4ccc(F)cc4)ccc3O[C@@H]2[C@H](CO)O1)NC1CCCCC1 | -5.14% (inactive)
15 | CO[C@H](CN(C)S(=O)(=O)c1cccc(Cl)c1)[C@@H](C)CN([C@H](C)CO)S(=O)(=O)c1ccc(Cl)cc1 | -1.32% (inactive)
16 | COC(=O)C[C@@H]1C[C@@H]2c3cc(NC(=O)CN(C)C)ccc3O[C@@H]2[C@@H](CO)O1 | 4.43% (inactive)

Row | Structure (SMILES) | activity change, negative = inhibition
17 | COc1cccc(C#Cc2ccc([C@@H]3[C@H](C#N)N(C(=O)c4ccccn4)[C@H]3CO)cc2)c1 | -1.9% (inactive)
18 | COc1cccc(S(=O)(=O)N(C)C[C@@H]2Oc3cc(C4=CCCCC4)ccc3S(=O)(=O)N([C@H](C)CO)C[C@H]2C)c1 | -5.06% (inactive)
19 | C[C@@H](NC(=O)C[C@H]1C=C[C@H](NC(=O)Cc2ccccn2)[C@H](CO)O1)c1ccccc1 | 3.96% (inactive)
20 | C[C@@H]1CN([C@H](C)CO)C(=O)Cc2cc(NC(=O)Cc3ccccc3)ccc2O[C@H]1CN(C)Cc1ccc(C(F)(F)F)cc1 | 2.66% (inactive)
21 | C[C@H](NC(=O)C[C@H]1C=C[C@@H](NC(=O)Cc2ccccn2)[C@H](CO)O1)c1ccccc1 | -0.458% (inactive)
22 | C[C@@H](NC(=O)C[C@@H]1C=C[C@@H](NC(=O)Cc2ccccn2)[C@@H](CO)O1)c1ccccc1 | -4.92% (inactive)
23 | C[C@H](CO)N1C[C@H](C)[C@H](CN(C)Cc2ccc(Oc3ccccc3)cc2)Oc2ccc(NC(=O)CCCN(C)C)cc2C1=O | 20.6% (inactive)
24 | O=C(C[C@@H]1C[C@@H]2c3cc(NC(=O)c4cccnc4)ccc3O[C@@H]2[C@H](CO)O1)NCC(F)(F)F | -2.45% (inactive)
25 | CS(=O)(=O)Nc1ccc2c(c1)[C@@H]1C[C@H](CC(=O)NCC3CC3)O[C@H](CO)[C@@H]1O2 | 6.19% (inactive)
26 | C[C@H](NC(=O)C[C@H]1C=C[C@H](NC(=O)Cc2ccccn2)[C@@H](CO)O1)c1ccccc1 | -2.25% (inactive)
27 | C[C@H]1CN([C@@H](C)CO)C(=O)Cc2cc(NC(=O)Cc3ccccc3)ccc2O[C@H]1CN(C)Cc1ccc(C(F)(F)F)cc1 | 63.2% (inactive)
28 | C[C@@H](NC(=O)C[C@@H]1C=C[C@H](NC(=O)Cc2ccccn2)[C@H](CO)O1)c1ccccc1 | -2.15% (inactive)
29 | COc1ccccc1CNC(=O)C[C@H]1C[C@@H]2c3cc(NC(=O)CN(C)C)ccc3O[C@@H]2[C@@H](CO)O1 | -0.186% (inactive)
30 | O=C(Cc1ccccn1)NCC[C@H]1CC[C@@H](NC(=O)Nc2ccc(Cl)cc2)[C@H](CO)O1 | -8.81% (inactive)
31 | C[C@H](NC(=O)C[C@@H]1C=C[C@H](NC(=O)Cc2ccccn2)[C@@H](CO)O1)c1ccccc1 | -2.15% (inactive)
